Results from patent US20250345329A1, “HETEROARYL DERIVATIVE COMPOUND AND USES THEREOF” (VORONOI, INC., priority 2022, published 2025).

Key:
[1] = biological target: T1, human EGFR (d746-750/T790M/C797S) (Homo sapiens, UniProt P00533, C797S/DEL746-750/T790M); assay: EGFR C797S enzyme inhibition activity (ADP-Glo kinase assay); format: biochemical; conditions: purified enzyme 3 ng, ATP 5 μM, 25° C., 1 hour, luminescence; read-out: EGFR DTC Enzyme IC50
T1 construct: human EGFR (d746-750/T790M/C797S) (668-end, SignalChem); purchased SignalChem
In short: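 Kinase construct 668-end (3 ng) was incubated with 5 μM ATP and 0.2 μg substrate in Tris pH 7.4 buffer for 1 h at 25° C. ADP-Glo luminescence was read over 12 final compound concentrations from 10 μM down to 0. IC50 was taken as 50% inhibition relative to the solvent control.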

[2] = test system: Ba/F3 expressing EGFR Del19/T790M/C797S mutations; assay: Inhibitory activity on proliferation of Ba/F3 cell overexpressing EGFR C797S (Cell Titer-Glo); format: cell-based; conditions: Mus musculus, BaF3; 72 hours treatment, cell growth rate vs control; read-out: Ba/F3 (EGFR DTC) GI50
In short: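 Ba/F3 cells with EGFR Del19/T790M/C797S in RPMI-1640 + 10% FBS were seeded (3000/well) 24 h before 72 h compound exposure at 37 °C. Compounds were tested in a 12-point 3-fold series, final […]–5 μM. CellTiter-Glo luminescence gave growth % versus control, from which GI50 was derived.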

T1 sequence (P00533 with tags, fused parts or gaps DEL746-750/T790M/C797S): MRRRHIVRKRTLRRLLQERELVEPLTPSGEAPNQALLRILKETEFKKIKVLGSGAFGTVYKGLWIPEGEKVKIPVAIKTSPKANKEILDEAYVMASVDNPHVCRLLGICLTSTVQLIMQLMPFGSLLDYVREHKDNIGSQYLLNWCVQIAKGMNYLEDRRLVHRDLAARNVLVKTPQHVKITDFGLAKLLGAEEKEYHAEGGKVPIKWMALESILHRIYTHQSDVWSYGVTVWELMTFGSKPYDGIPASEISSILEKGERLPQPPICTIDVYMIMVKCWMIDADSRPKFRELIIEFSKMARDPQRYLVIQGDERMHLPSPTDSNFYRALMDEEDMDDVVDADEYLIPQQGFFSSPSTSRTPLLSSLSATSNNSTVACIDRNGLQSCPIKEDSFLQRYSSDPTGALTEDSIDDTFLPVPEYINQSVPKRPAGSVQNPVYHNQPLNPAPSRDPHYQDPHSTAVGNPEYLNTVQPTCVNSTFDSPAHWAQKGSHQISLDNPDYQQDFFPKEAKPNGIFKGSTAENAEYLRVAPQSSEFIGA

SMILES	IC50 [1] [nM]	GI50 [2] [nM]
COC(=O)c1cnc2cc1N[C@@H](C)CCOc1c(cnn1C)-c1nccc(n1)N2 [Example 102, methyl(S)-1^1,6-dimethyl-1^1H-9-oxa-3,5-diaza-2(2,4)-pyrimidina-4(2,4)-pyridina-1(4,5)-pyrazolacyclo-nonaphane-4^5-carboxylate]	< 50	< 500
CC(C)Nc1cc(Nc2ccnc(-c3cnn(S(=O)(=O)C4CC4)c3)n2)ncc1C(=O)NCCS(C)(=O)=O [Example 35, 6-((2-(1-(cyclopropylsulfonyl)-1H-pyrazol-4-yl)pyrimidin-4-yl)amino)-4-(isopropylamino)-N-(2-(methylsulfonyl)ethyl) nicotinamide]	< 50	500 to 5000
CC(C)Nc1cc(Nc2ccnc(-c3cnn(S(=O)(=O)C4CC4)c3)n2)ncc1C(=O)NCCN1CCCC1 [Example 68, 6-((2-(1-(cyclopropylsulfonyl)-1H-pyrazol-4-yl)pyrimidin-4-yl)amino)-4-(isopropylamino)-N-(2-(pyrrolidin-1-yl)ethyl)nicotinamide]	< 50	500 to 5000
CC(C)Nc1cc(Nc2ccnc(-c3cnn(S(=O)(=O)C4CC4)c3)n2)ncc1C(=O)N1CC2(C1)CN(S(C)(=O)=O)C2 [Example 66, (6-((2-(1-(cyclopropylsulfonyl)-1H-pyrazol-4-yl)pyrimidin-4-yl)amino)-4-(isopropylamino)pyri-din-3-yl)(6-(methylsulfonyl)-2,6-diazaspiro[3.3]heptan-2-yl)methanone]	< 50	500 to 5000
CS(=O)(=O)CC1CN(C(=O)c2cnc(Nc3ccnc(-c4cnn(S(=O)(=O)C5CC5)c4)n3)cc2NC2CCCC2)C1 [Example 6, (4-(cyclopentylamino)-6-((2-(1-(cyclopropylsulfonyl)-1H-pyrazol-4-yl)pyrimidin-4-yl)amino)pyridin-3-yl)(3-((methylsulfonyl)meth-yl)azetidin-1-yl)methanone]	< 50	500 to 5000
CC(C)Nc1cc(Nc2ccnc(-c3cnn(S(=O)(=O)C4CC4)c3)n2)ncc1C(=O)Nc1cnn(S(=O)(=O)C2CC2)c1 [Example 32, N-(1-(cyclopropylsulfonyl)-1H-pyrazol-4-yl)-6-((2-(1-(cyclopropylsulfonyl)-1H-pyrazol-4-yL)pyrimidin-4-yl)amino)-4-(isopropylamino)nico-tinamide]	50 to 500	500 to 5000
CC(C)Nc1cc(Nc2ccnc(-c3cnn(S(=O)(=O)C4CC4)c3)n2)ncc1C(=O)NCC1CCCO1 (centres unmarked) [Example 62, 6-((2-(1-(cyclopropylsulfonyl)-1H-pyrazol-4-yl)pyrimidin-4-yl)amino)-4-(isopropylamino)-N-((tetrahydrofuran-2-yl)methyl)nicotin-amide]	< 50	< 500
CC(C)Nc1cc(Nc2ccnc(-c3cnn(S(=O)(=O)C4CC4)c3)n2)ncc1C(=O)NCCCC(F)(F)F [Example 81, 6-((2-(1-(cyclopropylsulfonyl)-1H-pyrazol-4-yl)pyrimidin-4-yl)amino)-4-(isopropylamino)-N-(4,4,4-trifluorobutyl)nicotin-amide]	< 50	< 500
CC(C)Nc1cc(Nc2ccnc(-c3cnn(S(=O)(=O)C4CC4)c3)n2)ncc1C(=O)NCCS(=O)(=O)N(C)C [Example 73, 6-((2-(1-(cyclopropylsulfonyl)-1H-pyrazol-4-yl)pyrimidin-4-yl)amino)-N-(2-(N,N-dimethylsulfamoyl)eth-yl)-4-(isopropylamino)nico-tinamide]	< 50	500 to 5000
C[C@H]1CCOc2c(cnn2C)-c2nccc(n2)Nc2cc(c(C(=O)NCC3CCCC3)cn2)N1 [Example 86, (S)-N-(cyclopentylmethyl)-1^1,6-dimethyl-1^1H-9-oxa-3,5-diaza-2(2,4)-pyrimidina-4(2,4)-pyridina-1(4,5)-pyrazolacyclo-nonaphane-4^5-carboxamide]	< 50	< 500
CC(C)Nc1cc(Nc2ccnc(-c3cnn(S(=O)(=O)C4CC4)c3)n2)ncc1C(=O)Nc1cc(N2CCN(C)CC2)cc(C(C)(C)C#N)c1 [Example 40, N-(3-(2-cyanopropan-2-yl)-5-(4-methylpiperazin-1-yl)phenyl)-6-((2-(1-(cyclopropylsulfonyl)-1H-pyrazol-4-yl)pyrimidin-4-yl)amino)-4-(isopropylamino)nico-tinamide]	50 to 500	500 to 5000
CS(=O)(=O)CC1CN(C(=O)c2cnc(Nc3ccnc(-c4cnn(S(=O)(=O)C5CC5)c4)n3)cc2NC2CCOC2)C1 (centres unmarked) [Example 7, (6-((2-(1-(cyclopropylsulfonyl)-1H-pyrazol-4-yl)pyrimidin-4-yl)amino)-4-((tetrahydrofuran-3-yl)amino)pyridin-3-yl)(3-((methylsulfonyl)meth-yl)azetidin-1-yl)methanone]	< 50	500 to 5000

Next, values leading:

IC50 [1] [nM]	GI50 [2] [nM]	SMILES
< 50	< 500	CC(C)Nc1cc(Nc2ccnc(-c3cnn(S(=O)(=O)C4CC4)c3)n2)ncc1C(=O)NC1CN(S(C)(=O)=O)C1 [Example 48, 6-((2-(1-(cyclopropylsulfonyl)-1H-pyrazol-4-yl)pyrimidin-4-yl)amino)-4-(isopropylamino)-N-(1-(methylsulfonyl)azeti-din-3-yl)nicotinamide]
< 50	500 to 5000	CO[C@H]1CCN(c2nccc(Nc3cc(NC(C)C)c(C(=O)Nc4cc(N5CCN(C)CC5)cc(C(C)(C)C#N)c4)cn3)n2)C[C@H]1F (relative stereo) [Example 42, N-(3-(2-cyanopropan-2-yl)-5-(4-methylpiperazin-1-yl)phenyl)-6-((2-(cis-3-fluoro-4-methoxypiperidin-1-yl)pyrimidin-4-yl)amino)-4-(isopropylamino)nico-tinamide]
50 to 500	500 to 5000	CO[C@H]1CCN(c2nccc(Nc3cc(NC4CCNC4)c(C(=O)N4CC(CS(C)(=O)=O)C4)cn3)n2)C[C@H]1F (relative stereo) [Example 15, (6-((2-(cis-3-fluoro-4-methoxypiperidin-1-yl)pyrimidin-4-yl)amino)-4-(pyrrolidin-3-ylamino)pyridin-3-yl)(3-((methylsulfonyl)meth-yl)azetidin-1-yl)methanone]
< 50	500 to 5000	CO[C@H]1CCN(c2nccc(Nc3cc(NC(C)C)c(C(=O)N4CC(C#N)C4)cn3)n2)C[C@H]1F (relative stereo) [Example 17, 1-(6-((2-(cis-3-fluoro-4-methoxypiperidin-1-yl)pyrimidin-4-yl)amino)-4-(isopropylamino)nico-tinoyl)azetidine-3-carbonitrile]
50 to 500	500 to 5000	CO[C@H]1CCN(c2nccc(Nc3cc(NC(C)C)c(C(=O)NCCc4ccccc4)cn3)n2)C[C@H]1F (relative stereo) [Example 96, 6-((2-(cis-3-fluoro-4-methoxypiperidin-1-yl)pyrimidin-4-yl)amino)-4-(isopropylamino)-N-phenethylnicotinamide]
< 50	< 500	CC(C)Nc1cc(Nc2ccnc(-c3cnn(S(=O)(=O)C4CC4)c3)n2)ncc1C(=O)NCC#N [Example 72, N-(cyanomethyl)-6-((2-(1-(cyclopropylsulfonyl)-1H-pyrazol-4-yl)pyrimidin-4-yl)amino)-4-(isoporpylamino)nico-tinamide]
< 50	500 to 5000	CC(C)Nc1cc(Nc2ccnc(-c3cnn(S(=O)(=O)C4CC4)c3)n2)ncc1C(=O)N1CC(C#N)C1 [Example 9, 1-(6-((2-(1-(cyclopropylsulfonyl)-1H-pyrazol-4-yl)pyrimidin-4-yl)amino)-4-(isopropylamino)nico-tinoyl)azetidine-3-carbonitrile]
